Target: T1, recombinant human Syk (GST-hSyk fusion protein) (Homo sapiens, UniProt P43405)
T1 construct: purchased Carna Biosciences 08-176
Assay: Homogeneous Time-Resolved Fluorescence (HTRF) assay for the recombinant human Syk enzyme
Type: biochemical
Conditions: 10-dose titration, 25 μM ATP; read-out: rhSYK IC50
Method in brief: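 GST-hSyk (5 pM) preincubated 10 min with compound (0.1% DMSO) in 15 mM Tris-HCl pH 7.5, 2 mM DTT; reaction started with 250 nM biotinylated peptide, 5 mM Mg, 25 μM ATP, 45 min, room temperature. EDTA quench, Eu-anti-phosphotyrosine/SA-APC HTRF read after 30 min; IC50 from 10-dose titration (10 μM–0.508 nM), four-parameter fit.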

Row | SMILES | IC50
1 | Cc1cc(Nc2nccc(C(F)(F)F)n2)cc(-c2cnn(C(C)(C)CC#N)c2)c1 [Example 9.1, 3-methyl-3-[4-(3-methyl-5-{[4-(trifluoromethyl)pyrimidin-2-yl]amino}phenyl)-1H-pyrazol-1-yl]butanenitrile] | 9 nM

Same assay, conditions: IC50 class; 10-dose titration, 25 μM ATP; read-out: rhSYK Activity

Row | SMILES | IC50
2 | C[C@@](O)(CO)Cn1cc(-c2cc(F)cc(Nc3nccc(C(F)(F)F)n3)c2)cn1 [Example 2.91, (2S)-3-[4-(3-fluoro-5-{[4-(trifluoromethyl)pyrimidin-2-yl]amino}phenyl)-1H-pyrazol-1-yl]-2-methylpropane-1,2-diol] | ≤ 100 nM
3 | Cc1cc(Nc2nccc(C(F)F)n2)cc(-c2cnn(CC(O)CC3COC(=O)C3)c2)c1 (stereo not drawn) [Example 5.28, 4-{3-[4-(3-{[4-(difluoromethyl)pyrimidin-2-yl]amino}-5-methylphenyl)-1H-pyrazol-1-yl]-2-hydroxypropyl}dihydrofuran-2(3H)-one] | ≤ 100 nM
4 | Cc1cc(Nc2nccc(C(F)(F)F)n2)cc(-c2cnn(C(C)C(C)(O)CO)c2)c1 (single isomer, unassigned) [Example 21.9, 2-methyl-3-[4-(3-methyl-5-{[4-(trifluoromethyl)pyrimidin-2-yl]amino}phenyl)-1H-pyrazol-1-yl]butane-1,2-diol] | ≤ 100 nM
5 | Cc1cc(Nc2nccc(C(F)(F)F)n2)cc(-c2cnn(C3CCOC3=O)c2)c1 (stereo not drawn) [Example 3.17, 3-[4-(3-methyl-5-{[4-(trifluoromethyl)pyrimidin-2-yl]amino}-phenyl)-1H-pyrazol-1-yl]dihydrofuran-2(3h)-one] | ≤ 100 nM
6 | Cc1cc(Nc2nccc([C@@H](C)F)n2)cc(-c2cnn(CC(C)(O)CO)c2)c1 (single isomer, unassigned) [Example 25.6] | ≤ 100 nM
7 | Cc1cc(Nc2nccc(C(F)F)n2)cc(-c2cnn(CC(C)(C)NC(=O)NCC3CCOCC3)c2)c1 [Example 27.9, 1-{2-[4-(3-{[4-(difluoromethyl)pyrimidin-2-yl]amino}-5-methylphenyl)-1H-pyrazol-1-yl]-1,1-dimethylethyl}-3-(tetrahydro-2H-pyran-4-ylmethyl)urea] | ≤ 100 nM
8 | Cc1ccnc(Nc2cccc(-n3cc(CCC(=O)O)cn3)n2)c1 [Example 18.2, 3-(1-{6-[(4-methylpyridin-2-yl)amino]pyridin-2-yl}-1H-pyrazol-4-yl)propanoic acid] | 100 to 1000 nM
9 | COc1nc(Nc2cc(C)cc(-c3cnn(CC4CNC(=O)O4)c3)c2)ncc1F (stereo not drawn) [Example 2.30, 5-[(4-{3-[(5-fluoro-4-methoxypyrimidin-2-yl)amino]-5-methylphenyl}-1H-pyrazol-1-yl)methyl]-1,3-oxazolidin-2-one] | ≤ 100 nM
10 | Cc1cc(Nc2nccc(C(F)(F)F)n2)cc(-c2cnn(CC3(O)CCN(CC(=O)OC(C)(C)C)CC3)c2)c1 [Example 12.4, tert-butyl (4-hydroxy-4-{[4-(3-methyl-5-{[4-(trifluoro-methyl)pyrimidin-2-yl]amino}phenyl)-1H-pyrazol-1-yl]methyl}-piperidin-1-yl)acetate] | 100 to 1000 nM
11 | Cc1cc(Nc2nccc(C(F)(F)F)n2)cc(-c2cnn(CC(C)(O)C(N)=O)c2)c1 (racemic) [Example 8.11, 2-hydroxy-2-methyl-3-[4-(3-methyl-5-{[4-(trifluorometh-yl)pyrimidin-2-yl]amino}-phenyl)-1H-pyrazol-1-yl]propanamide] | ≤ 100 nM
12 | Cc1cc(Nc2nccc(C(F)F)n2)cc(-c2cnn(CCNS(=O)(=O)N3CCOCC3)c2)c1 [Example 27.14, N-{2-[4-(3-{[4-(difluoromethyl)pyrimidin-2-yl]amino}-5-methylphenyl)-1H-pyrazol-1-yl]ethyl}morpholine-4-sulfonamide] | ≤ 100 nM
13 | Cc1cc(Nc2nccc(C(F)(F)F)n2)cc(-c2ccnn2C)c1 [Example 1.9, N-[3-methyl-5-(1-methyl-1H-pyrazol-5-yl)phenyl]-4-(trifluoromethyl)pyrimidin-2-amine] | 100 to 1000 nM
14 | COc1ccnc(Nc2cc(C)cc(-c3cnn(CC4CNC(=O)O4)c3)c2)n1 (stereo not drawn) [Example 2.21, 5-[(4-{3-[(4-methoxypyrimidin-2-yl)amino]-5-methylphenyl}-1H-pyrazol-1-yl)methyl]-1,3-oxazolidin-2-one] | ≤ 100 nM
15 | Cc1cc(-c2cnn(CC(O)CF)c2)cc(N(CC(O)CF)c2nccc(C(F)(F)F)n2)c1 (racemic) [Example 5.13, 1-fluoro-3-({3-[1-(3-fluoro-2-hydroxy-propyl)-1H-pyrazol-4-yl]-5-methyl-phenyl}-[4-(trifluoromethyl)-pyrimidin-2-yl]-amino)propan-2-ol] | 100 to 1000 nM
16 | Cc1cc(Nc2nccc(C(F)(F)F)n2)cc(-c2cnn(C(C)(C)CC#N)c2)c1 [Example 9.1, 3-methyl-3-[4-(3-methyl-5-{[4-(trifluoromethyl)pyrimidin-2-yl]amino}phenyl)-1H-pyrazol-1-yl]butanenitrile] | ≤ 100 nM
17 | Cc1cc(Nc2nccc(C(F)(F)F)n2)cc(-c2cnn(CC3NC(=O)OC3C)c2)c1 (stereo not drawn) [Example 3.128, 5-methyl-4-{[4-(3-methyl-5-{[4-(trifluoromethyl)pyrimidin-2-yl]amino}phenyl)-1H-pyrazol-1-yl]methyl}-1,3-oxazolidin-2-one] | ≤ 100 nM

Row | SMILES | IC50
18 | Cc1cc(Nc2nccc(C(F)(F)F)n2)cc(-c2cnn(CC(=O)N3[C@H](C)COC[C@H]3C)c2)c1 [Example 3.15, N-[3-(1-{2-[(3r,5r)-3,5-dimethylmorpholin-4-yl]-2-oxoethyl}-1H-pyrazol-4-yl)-5-methylphenyl]-4-(trifluoromethyl)-pyrimidin-2-amine] | ≤ 100 nM
19 | Cc1cc(Nc2nccc(C(F)(F)F)n2)cc(-c2cnn(CC(C)(O)C(N)=O)c2)c1 (single isomer, unassigned) [Example 8.14, 2-hydroxy-2-methyl-3-[4-(3-methyl-5-{[4-(trifluorometh-yl)pyrimidin-2-yl]amino}phenyl)-1H-pyrazol-1-yl]propanamide] | ≤ 100 nM
20 | COC(=O)NC(C)(C)Cn1cc(-c2cc(C)cc(Nc3nccc(C(F)F)n3)c2)cn1 [Example 27.11, methyl {2-[4-(3-{[4-(difluoromethyl)pyrimidin-2-yl]amino}-5-methylphenyl)-1H-pyrazol-1-yl]-1,1-dimethylethyl}carbamate] | ≤ 100 nM
21 | Cc1cc(Nc2ncc(F)c(C(F)F)n2)cc(-c2cnn(CC3(O)CCC3)c2)c1 [Example 29.6, 1-{[4-(3-{[4-(difluoromethyl)-5-fluoropyrimidin-2-yl]amino}-5-methylphenyl)-1H-pyrazol-1-yl]methyl}cyclobutanol] | ≤ 100 nM
22 | Cc1cc(Nc2cc(C(F)F)ccn2)nc(-c2cnn(CC3CNC(=O)O3)c2)c1 (stereo not drawn) [Example 3.81, 5-{[4-(6-{[4-(difluoromethyl)pyridin-2-yl]amino}-4-methylpyridin-2-yl)-1H-pyrazol-1-yl]methyl}-1,3-oxazolidin-2-one] | ≤ 100 nM
23 | Cc1cc(Nc2nccc(C(F)(F)F)n2)cc(-c2cnn(C)c2)c1 [Example 1.3, N-[3-methyl-5-(1-methyl-1H-pyrazol-4-yl)phenyl]-4-(trifluoromethyl)-pyrimidin-2-amine] | ≤ 100 nM
24 | Cc1cc(Nc2nccc(C(F)F)n2)cc(-c2cnn(C3CCC(C(=O)O)CC3)c2)c1 (stereo not drawn) [Example 2.60, 4-[4-(3-{[4-(difluoromethyl)pyrimidin-2-yl]amino}-5-methylphenyl)-1H-pyrazol-1-yl]cyclohexanecarboxylic acid] | ≤ 100 nM
25 | Cc1cc(Nc2nccc(C(F)(F)F)n2)cc(-c2cnn(CC3CNC(=O)O3)c2)c1 (stereo not drawn) [Example 2.45, 5-{[4-(3-methyl-5-{[4-(trifluoromethyl)-pyrimidin-2-yl]amino}phenyl)-1H-pyrazol-1-yl]methyl}-1,3-oxazolidin-2-one] | ≤ 100 nM
26 | Cc1cc(Nc2nccc(C(F)(F)F)n2)cc(-c2cnn(CC3CC3)c2)c1 [Example 3.21, N-{3-[1-(cyclopropylmethyl)-1H-pyrazol-4-yl]-5-methylphenyl}-4-(trifluoromethyl)pyrimidin-2-amine] | ≤ 100 nM
27 | O=C(O)C1CCC(n2cc(-c3cc(Cl)cc(Nc4nccc(C(F)(F)F)n4)c3)cn2)CC1 (stereo not drawn) [Example 1.60, 4-[4-(3-chloro-5-{[4-(trifluoromethyl)pyrimidin-2-yl]amino}phenyl)-1H-pyrazol-1-yl]cyclohexanecarboxylic acid] | ≤ 100 nM
28 | Cc1cc(Nc2nccc(C)n2)cc(-c2cnn(CC3CNC(=O)O3)c2)c1 (stereo not drawn) [Example 2.31, 5-[(4-{3-methyl-5-[(4-methylpyrimidin-2-yl)amino]phenyl}-1H-pyrazol-1-yl)methyl]-1,3-oxazolidin-2-one] | ≤ 100 nM
29 | Cc1cc(Nc2nccc(C(F)(F)F)n2)cc(-c2cnn(CC3OC(=O)NC3C(C)C)c2)c1 (single isomer, unassigned) [Example 23.4, 4-(1-methylethyl)-5-{[4-(3-methyl-5-{[4-(trifluoromethyl)pyrimidin-2-yl]amino}phenyl)-1H-pyrazol-1-yl]methyl}-1,3-oxazolidin-2-one] | ≤ 100 nM
30 | Cc1cc(Nc2ncc(F)c(C)n2)cc(-c2cnn(C[C@@H](O)C(=O)O)c2)c1 [Example 11.13, (2R)-3-(4-{3-[(5-fluoro-4-methylpyrimidin-2-yl)amino]-5-methylphenyl}-1H-pyrazol-1-yl)-2-hydroxypropanoic acid] | ≤ 100 nM
31 | Cc1cc(Nc2nccc(C(F)F)n2)cc(-c2cnn(CC3CC(=O)NC34CC4)c2)c1 (stereo not drawn) [Example 3.89, 7-{[4-(3-{[4-(difluoromethyl)pyrimidin-2-yl]amino}-5-methylphenyl)-1H-pyrazol-1-yl]methyl}-4-azaspiro[2.4]heptan-5-one] | ≤ 100 nM
32 | Cc1cc(Nc2nccc(C(F)(F)F)n2)cc(-c2cnn(CC3(C)CNC(=O)O3)c2)c1 (stereo not drawn) [Example 3.117, 5-methyl-5-{[4-(3-methyl-5-{[4-(trifluoromethyl)pyrimidin-2-yl]amino}phenyl)-1H-pyrazol-1-yl]methyl}-1,3-oxazolidin-2-one] | ≤ 100 nM
33 | Cc1cc(Nc2nccc(C(F)(F)F)n2)cc(-c2cnn(CC3NC(=O)OC3C)c2)c1 (stereo not drawn) [Example 3.127, 5-methyl-4-{[4-(3-methyl-5-{[4-(trifluoromethyl)pyrimidin-2-yl]amino}phenyl)-1H-pyrazol-1-yl]methyl}-1,3-oxazolidin-2-one] | ≤ 100 nM

From patent US9242984B2, “Pyrazolyl derivatives as Syk inhibitors” (Merck Sharp & Dohme Corp., priority 2012, dated 2016)
